Data on 2 compounds can be found in patent US20260275412A1, “A GENE SIGNATURE FOR DIAGNOSING STIMULATOR OF INTERFERON GENES (STING)-ASSOCIATED VASCULOPATHY WITH ONSET IN INFANCY (SAVI)” (INSTITUT NATIONAL DE LA SANTÉ ET DE LA RECHERCHE MÉDICALE, priority 2023, published 2026).

One assay has as its system T cell. The note with it: cited from earlier work.
The test system of the next assay is SAVI patients. Particulars: SAVI patients treated with JAK-inhibitors; cited from earlier work.
In the next assay the test system is STING. The assay is described as follows: in vitro model of STING activation: PBMCs with ADUS100 with or without JAK-inhibitor, scRNA-seq. Type of assay: cell-based, human. Particulars: 4 hours. From the text: Sequencing reads were demultiplexed and aligned to the human reference genome (hg38), and counted using the CellRanger Pipeline v6.0. Unfiltered RNA UMI counts were loaded into Seurat v4 for quality control, data integration and downstream analyses. Apoptotic cells and empty sequencing capsules were excluded by filtering out cells with low number of features (Filters were defined based on the batch: STING1: nFeature <300; STING2 and STING3<500; IFN-stim <750) or a mitochondrial content higher than 20%. Data from each sample were normalized using sctransform, before batch correction using Seurat's FindIntegratedAnchors, on the 3,000 most variable features. For the IFN-β dataset, for computational efficiency, integration anchors were determined with a canonical correlation analysis, using all unstimulated samples as reference. For the SAVI dataset, to avoid over-aligning samples, a reciprocal principal component analysis (PCA) was used to find integration anchors. On the resulting integrated datasets, we computed the PCA on the 3000 most variable genes, before computing a UMAP (on 20 PCs for SAVI and 30 PCs for IFN-stimulation). Community detection was performed using the graph-based modularity-optimization Louvain algorithm from Seurat's FindClusters function with a 1.2 resolution. Cell types labels were assigned to resulting clusters based on a manually curated list of marker genes as well as previously defined signatures of the PBMC subtypes.^58 Despite filtering for high quality cells, 11/34 clusters in the SAVI dataset and 7/36 in the IFN-β dataset stood out as poor quality clusters and were removed from further analysis. They represented low UMI cells, dying cells, cycling cells, doublets, or contaminants (progenitor cells, basophils, platelets or megakaryocytes). […] Transcriptomic signatures scores were calculated using Seurat's AddModuleScore function. […]
Human PBMC samples were obtained from Promocell (C-12907 promocell, lot 434Z036). […] Libraries were sequenced on a Novaseq (Illumina), with 26 cycles of read 1, 8 cycles of i7 index and 98 cycles of read 2. […]

Setting [1] is: PBMCs from a healthy donor, ADUS100 3 mM, vs unstimulated.

With `C[C@@H]1CCN(C(=O)CC#N)C[C@@H]1N(C)c1ncnc2[nH]ccc12` [Tofacitinib, tofacitinib], the T cell proliferation entry in the assay on T cell is given as “inhibit T cell proliferation”. The “symptoms of SAVI patients” value with SAVI patients is recorded as “partial improvements of the symptoms”.

In the case of `Nc1ncnc2c1ncn2[C@@H]1O[C@@H]2COP(=O)([S-])O[C@@H]3[C@H](O)[C@@H](COP([O-])(=S)O[C@H]2[C@H]1O)O[C@H]3n1cnc2c(N)ncnc21.[Na+].[Na+]` (some centres unmarked) [ADUS100], in the assay with STING (setting [1]), the “score of NF-κB activation” value is listed as “increased” and the “score of type I IFN response” value is on record as “increased”. The “STING-associated signature (21 genes)” value in the assay with STING (monocytes and DCs of stimulated PBMCs) is “strong increase”.
